For experiment [1], the system named is SCD. The experiment can be described thus: 13C-glucose tracing of de novo fatty acid biosynthesis in activated B cells (NEFA isotopomer analysis). The experiment is classed as cell-based, mouse. To be noted: 48 hours. As for the experimental part:
Briefly, 5×10^6 activated B cells were washed with PBS and re-cultured in glucose-free medium RPMI medium containing 10% dialyzed FBS and uniformly labeled [^13C]-glucose (2 g/L; Sigma-Aldrich) for 24 and 48 hours. Cell pellets were lysed in 1×PBS prior to lipid extraction. The extract was dried down and brought up in running buffer before underwent analysis on an Agilent 6550 iFunnel Q-TOF mass spectrometer/1290 Infinity liquid chromatographic system. A mixed standard containing 14 fatty acids was also run at the beginning and at the end of the sequence to generate retention time lock as well as unlabeled mass spectrum for each fatty acid. The mass spec was operating in negative electrospray ionization. Data was acquired in scan mode from 50-1700 m/z range. Data analysis was performed on Agilent Technologies software including Profinder, Mass Profiler Professional (MPP) and Vista Flux. Briefly, the features extracted from the data files were aligned using Profinder and converted to a compound exchange file (CEF) format to import in the MPP. The list was filtered for frequency and abundance to identify features that are present in all samples and with high abundance. A library was created using mass, molecular formula, and retention time of these features and used in conjunction with the Vista Flux software to determine the presence of isotopologue in individual feature. […]

The test system of another experiment is mice. The experiment can be described thus: Mice fed SSI-4 chow: serum fatty acids (GC-MS) and lymphocyte development. In kind it is in vivo, mouse.
The test system of experiment [2] is mice immunized with NP-OVA. The experiment can be described thus: NP-OVA immunization of mice fed SSI-4 chow: humoral immune response. In kind it is in vivo, mouse.
Experiment [3] concerns SCD. The experiment can be described thus: Fatty acid composition of fresh and activated B cells by LC-MS/MS. The experiment is classed as cell-based, mouse. To be noted: 100 nM SSI-4, 48 hours.
For a further experiment, the system named is MRL/MpJ-Faslpr mice. The experiment can be described thus: MRL/MpJ-Faslpr lupus mouse model fed SSI-4 chow. The experiment is classed as in vivo. As for the experimental part: MRL/MpJ-Fas^lpr mice and B6 (C)-H2-Ab1^bm12/KhEgJ (bm12) mice were purchased from the Jackson Laboratory. Six weeks old female MRL/MpJ-Fas^lpr mice were treated with control chow or SSI-4 chow (60 mg/kg, on a two-week SSI-4 chow/control-chow alternating schedule) ad libitum for 15 weeks. Proteinuria was measured using Albustix strips (Siemens). Kidney histology was done using routine H&E staining. Thirty million splenocytes from 8 weeks old B6 (C)-H2-Ab1^bm12/KhEgJ (bm12) mice were transferred into C57BL/6 mice intraperitoneally. Mice were fed with control chow or SSI-4 chow (30 mg/kg, on an one-week SSI-4 chow/control-chow alternating schedule) ad libitum for 8 weeks.
For analysis of surface markers, cells were stained in PBS containing 1% (w/v) bovine serum albumin on ice for 30 minutes, with anti-B220 (RA3-6B2, Biolegend), anti-CD4 (GK1.5, Biolegend), anti-CD138 (281-2, Biolegend), anti-PD-1 (J43, ThermoFisher). CXCR5 was stained with biotinylated anti-CXCR5 (2G8) followed by staining with streptavidin-conjugated PE (both from BD Biosciences). Cell viability was assessed using the Fixable Dye Ghost 510 (Tonbo Bioscience) following the manufacturer's protocol. Flow cytometry was performed on the LSR II, LSR Fortessa (BD Biosciences) or Attune NxT (ThermoFisher) cytometers, and analysis was performed using FlowJo software (Tree Star).

The next experiment has as its system human B cells. The experiment can be described thus: Human naive B cell proliferation (thymidine incorporation) and CD27 expression. The experiment is classed as cell-based. On the procedure:
PBMCs were isolated from the medical waste following apheresis collection of platelets. Briefly, blood was diluted 1:3 using PBS. The diluted blood was then overlaid with Ficoll-Paque PLUS density gradient medium (GE Healthcare). The gradient was centrifuged at 400 g with no brake for 25 minutes at room temperature. The PBMC interphase layer was collected, washed with PBS with 0.1% BSA/2 mM of EDTA. Naive B cells (CD19^+CD27^−IgD^+) were enriched using Human naive B cell negative selection kit (Stemcell Technologies). Mouse B cells were isolated from pooled single cell suspensions of spleen and peripheral lymph nodes using CD19 Microbeads (Miltenyi) or Mouse B cell Isolation Kit (Stemcell Technologies). B cells were stimulated with LPS (10 μg/mL; Sigma-Aldrich) and recombinant IL-4 cytokine (10 ng/mL; Tonbo Bioscience) with or without SCD inhibitor SSI-4, and proliferation was measured by dilution of CellTrace Violet proliferation dye (Thermo Fisher Scientific). B cells were also stimulated with anti-IgM (10 μg/mL; Jackson ImmunoResearch), anti-CD40 (10 μg/mL; BioXcell) and IL-4 (10 ng/mL; Tonbo Bioscience), or TLR ligand CpG (2.5 μM; IDT), recombinant IL-4 and IL-5 (10 ng/mL; Tonbo Bioscience) cytokines. To test the function of monounsaturated and saturated fatty acids, B cells were activated in presence of exogenous fatty acid-BSA conjugate. Palmitoleic acid (NU-CHEK PREP, INC), palmitic acid (NU-CHEK PREP, INC), stearic acid (NU-CHEK PREP, INC) were conjugated with fatty acid free BSA (Sigma-Aldrich) as described elsewhere (Wang et al., Immunity 35:871-882 (2011)). Human B cells were activated with CpG OND2006 (2.5 μM; IDT), recombinant human cytokine IL-10 ([…]; Peprotech), IL-15 (10 ng/mL; Peprotech), IL-4 (10 ng/mL; Biolegend), IL-2 (10 unit/mL) and anti-human CD40 (1 μg/mL; BioXcell). Human B cell proliferation was measured by ^3[H]-thymidine incorporation (1 μCi/mL) (American Radiolabeled Chemicals).

Each structure is given as a SMILES string.

With `CNC(=O)c1ccnc(NC(=O)N2CCC(Oc3ccccc3Cl)CC2)c1` [SSI-4, 2-{[4-(2-Chlorophenoxy)piperidine-1-carbonyl]amino}-N-methylpyridine-4-carboxamide], in the experiment with SCD [1], the “13C incorporation from glucose in OA, PO and vaccenic acid” value is reported as “all abolished”; the “13C incorporation from glucose into SA, PA and myristic acid” value is given as “largely unaffected”. In the experiment on mice (SSI-4 chow), the “CD25+ pre-B cells in bone marrow” value is recorded as “significant reduction”; the “GC percentage and IgA expression in Peyer's patches” value is given as “modest reduction”; the composition of thymocytes entry is “unaffected”; the “number of peripheral B cells and CD4+ T cells” value was “not affected”. The “pool of immature B cells and B cell precursors (CD19+ B220int) in bone marrow” value with mice (SSI-4 chow) was “significant reduction”. Also, in the experiment on mice (SSI-4 chow for 1 week, GC-MS), the “serum OA and PO concentration” value is “markedly reduced”. Further, in the experiment with mice (SSI-4 chow, spleen), the “frequency of mature B cells (CD19+IgMloIgD+)” value is on record as “slightly increased”. Also, in experiment [2] (NP-OVA immunized, SSI-4 chow), the “B220intCD138+ plasmablast generation” value is “not affected”, the “antigen specific NP+ GC B cells” value was “reduced” and the “splenic GC formation” value was “significantly suppressed”. In addition, in experiment [2] (NP-OVA immunized, SSI-4 chow, GC-MS), the “OA level in sera of immunized mice” value was “substantially reduced”. Further, in experiment [2] (SSI-4 chow (30 mg/kg), NP-OVA immunization for one week), the “mTORC1 activity (p-S6 MFI) in splenic B cells in vivo” value was “suppressed mTORC1 activity”. In addition, the “percentage of Tfh cells after immunization” value in experiment [2] (SSI-4 chow vs control chow) is listed as “comparable”. In experiment [2] (serum ELISA), the “production of anti-NP specific IgM antibodies” value is “but not IgM”; the “production of anti-NP specific total IgG and IgG1 antibodies” value is “significantly reduced”. Moreover, the “accumulation of MUFAs (PO, OA) in activated B cells” value in the experiment on SCD [3] is “largely reversed it”. Also, the “kidney histology (H&E)” value in the experiment on MRL/MpJ-Faslpr mice (SSI-4 chow 60 mg/kg, alternating schedule) is “reduced immune cell infiltration and inflammation”. For the same molecule, the proteinuria result in the experiment with MRL/MpJ-Faslpr mice (SSI-4 chow 60 mg/kg, two-week alternating schedule, from 6 weeks old, measured from 8 weeks old) is “no increase of proteinuria”. Besides, the “B cell proliferation measured by Ki-67 expression” value in the experiment with MRL/MpJ-Faslpr mice (flow cytometry) is listed as “significantly reduced”. The “B cell metabolic activity measured by expression of CD98” value in the experiment with MRL/MpJ-Faslpr mice (flow cytometry MFI) is recorded as “significantly reduced”.

For the molecule `CCCCCCCC/C=C\CCCCCCCC(=O)O` [OA, oleic acid], the “restoration of human B cell proliferation and CD27 expression upon SSI-4 treatment” value in the experiment with human B cells (SSI-4 (10 nM) plus exogenous OA) is “restored B cell proliferation and CD27 expression”. For the same molecule, the “human B cell activation measured by CD27 expression, exogenous OA alone” value in the experiment on human B cells (flow cytometry MFI) is “promoted”. Besides, the “human B cell proliferation, exogenous OA alone” value with human B cells (thymidine incorporation) is listed as “promoted human B cell proliferation”.

(Values after patent US11833144B2, “Treating autoimmune disease” (Mayo Foundation for Medical Education and Research, priority 2020, dated 2023).)
